Entries after “also recorded” stand apart in the source; their conditions may differ.
Experiments:
cell wall UCP = experiment: Flow cytometry of non-permeabilized cells stained with anti-UCP2 antibody for cell wall UCP; type: cell-based, Chlamydomonas reinhardtii; conditions: wild type strains of C. reinhardtii treated with norflurazon; FIG. 3
Protocol: Wild type (CC124, mt−) and cell wall-less (CC, mt+) C. reinhardtii were tested for the presence of UCP by flow cytometry. Non-permeabilized cells were stained with anti-UCP2 antibody (Santa Cruz Technologies). Cells were prepared for staining with goat anti-UCP2 antibody (Santa Cruz Pharmaceuticals) followed by fluorescein conjugated anti-rabbit or goat outer step antibodies, respectively. Data were acquired on a Coulter Elite Epics flow cytometer (Coulter, Hialeah, Fla.) and analyzed with CellQuest software, (Becton Dickinson, San Jose, Calif.). Cells were stained for intracellular peroxide using 6-carboxy-2′-7′-dichlorodihydrofluorescein diacetate (DCF-DA, Molecular Probes, Eugene, Oreg.). Briefly, cells were incubated with DCF-DA for 20 minutes, washed twice in PBS containing 5% fetal calf serum and analyzed flow cytometrically. Mitochondrial membrane potential was assessed using Mitotracker Red (CM-H2XROS, Molecular Probes, Eugene, Oreg.). The cells were resuspended in cold, or room temperature, PBS containing 13% fetal calf serum, 0.5 micromolar Mitotracker Red dye was then added to the suspension. The cells were incubated at 37° C. for 20 minutes, pelleted, and resuspended in prewarmed medium for analysis. […] Each sample population was classified for cell size (forward scatter) and complexity (side scatter), gated on a population of interest and evaluated using 40,000 cells.

[1] = tested on: wild type strains of algae; experiment: Light sensitivity of wild type algae in the presence of the herbicide; type: cell-based, Chlamydomonas reinhardtii; conditions: in the presence of norflurazon

## CNc1cnn(-c2cccc(C(F)(F)F)c2)c(=O)c1Cl [norflurazon]
Cell wall UCP
  cell wall expression of UCP: upregulates cell wall expression of UCP; also recorded: Increased levels of uncoupling protein
[1]
  light sensitivity of algae: made light-sensitive

Reference: patent publication US7105718B2, “Compositions and methods for regulating metabolism in plants” (The Regents of the University of Colorado, priority 2000, dated 2006)
